Reference: US5807854A, “Pyrimidone derivatives with antifungal activity” (J. Uriah & Cia. S.A., priority 1995, dated 1998)
In brackets after ≈: the same amount, converted by molar mass.

Experiments:
[1] = system: Aspergillus fumigatus; assay: In vitro activity by the agar dilution method, Aspergillus fumigatus; format: cell-based; details: 120 h, Kimmig's agar, 25° C., 5 days, read-out: MIC (minimal inhibitory concentration), Asp. fumigatus
Procedure: (§1) In vitro activity was evaluated against C. albicans, C. krusei, and Aspergillus fumigatus by the agar dilution method. Test strains were either clinical isolates or were obtained from ATCC. Stock solutions containing 800 μg/mL were prepared by solving the test products in 50% ethanol. The culture medium used was Kimmig's agar (K. A., E. Merck) supplemented with 0.5% glycerol. Plates containing serial dilutions (80 to 0.025 gg/imL) of the test products were inoculated with 10 μL of the fungal inocula, containing 10^5 colony forming units (cfu)/mL. Plates were incubated at 25° C. during 48 h for Candida sp. and during 5 days for Apergillus fumigatus. Following incubation MICs (minimal inhibitory concentrations) were determined.

[2] = system: C. albicans; assay: In vitro activity by the agar dilution method, C. albicans; format: cell-based; details: Candida albicans; Kimmig's agar, 25° C., 48 h; read-out: MIC (minimal inhibitory concentration), C. albicans
Procedure: as §1

[3] = system: systemic aspergillosis; assay: In Vivo Activity (Systemic Aspergillosis); parameters: species or system mice; details: p.o. 20 mg/kg/day, 5 days; control mortality on day 25 was 90%
[4] = system: Candida albicans; assay: In Vivo Activity (Systemic Candidiasis); details: po, 576 h, male mice, i.v. infection, read-out: protection on the day where all the animals in the control group had died; for responders at 10 mg/kg: orally at 10 mg/kg (asterisk) at 1, 4 and 24 h after infection; for responders at 1 mg/kg: orally at 1 mg/kg at 1, 4 and 24 h after infection
Procedure: Groups of 10 male mice were inoculated i.v. with 0.2 mL of a suspension containing (2-8)×10^7 cfu/mL of Candida albicans. Compounds were administered orally at 1 mg/kg (or at 10 mg/kg for those compounds marked with an asterisk) at times 1, 4 and 24 h after infection.

[5] = system: C. krusei; assay: In vitro activity by the agar dilution method, C. krusei; format: cell-based; details: Pichia kudriavzevii; Kimmig's agar, 25° C., 48 h; read-out: MIC (minimal inhibitory concentration), C. krusei
Procedure: as §1

| SMILES | MIC [1] [µg/mL] | MIC [2] [µg/mL] | MIC [5] [µg/mL] | protection on day 25 postinfection [3] | responders at 10 mg/kg [4] [%] | responders at 1 mg/kg [4] [%] |
| --- | --- | --- | --- | --- | --- | --- |
| C[C@@H](n1cnc2cc(Cl)ccc2c1=O)[C@](O)(Cn1cncn1)c1ccc(F)cc1F [Example 1, (1R,2R)-7-Chloro-3-[2-(2,4-difluorophenyl)-2-hydroxy-1-methyl-3-(1H-1,2,4-triazol-1-yl)propyl]quinazolin-4(3H)-one] | 0.31 (≈ 0.718 µM) | ≤ 0.03 | 0.63 (≈ 1.46 µM) | 60-100% | 100 |  |
| C[C@@H](n1cnc2cc(C#N)ccc2c1=O)[C@](O)(Cn1cncn1)c1ccc(F)cc1F [Example 2, (1R,2R)-7-Cyano-3-[2-(2,4-difluorophenyl)-2-hydroxy-1-methyl-3-(1H-1,2,4-triazol-1-yl)propyl]quinazolin-4(3H)-one] | 1.25 (≈ 2.96 µM) | ≤ 0.03 | 1.25 (≈ 2.96 µM) | 60-100% |  |  |
| C[C@@H](n1cnc2ccc(Cl)cc2c1=O)[C@](O)(Cn1cncn1)c1ccc(F)cc1F [Example 7, (1R,2R)-6-Chloro-3-[2-(2,4-difluorophenyl)-2-hydroxy-1-methyl-3-(1H-1,2,4-triazol-1-yl)propyl]quinazolin-4(3H)-one] | 40 (≈ 92.6 µM) | ≤ 0.03 | 2.5 (≈ 5.79 µM) |  |  | 100 |
| C[C@@H](n1cnc2cc(OCC(F)(F)C(F)F)ccc2c1=O)[C@](O)(Cn1cncn1)c1ccc(F)cc1F [Example 17, (1R,2R)-3-[2-(2,4-Difluorophenyl)-2-hydroxy-1-methyl-3-(1H-1,2,4-triazol-1-yl)propyl]-7-(2,2,3,3-tetrafluoropropoxy)quinazolin-4(3H)-one] | 20 (≈ 37.9 µM) | ≤ 0.03 | 0.63 (≈ 1.19 µM) |  |  | 100 |
| C[C@@H](n1cnc2cc(OCC(F)(F)F)ccc2c1=O)[C@](O)(Cn1cncn1)c1ccc(F)cc1F [Example 20, (1R,2R)-3-[2-(2,4-Difluorophenyl)-2-hydroxy-1-methyl-3-(1H-1,2,4-triazol-1-yl)propyl]-7-(2,2,2-trifluoroethoxy)quinazolin-4(3H)-one] | 10 (≈ 20.2 µM) | 0.31 (≈ 0.626 µM) | 1.25 (≈ 2.52 µM) |  |  | 100 |
| C[C@@H](n1cnc2cc(-c3ccc(C#N)cc3)sc2c1=O)[C@](O)(Cn1cncn1)c1ccc(F)cc1F [Example 32, (1R,2R)-4-[3-[2-(2,4-Difluorophenyl)-2-hydroxy-1-methyl-3-(1H-1,2,4-triazol-1-yl)propyl]-4-oxo-3,4-dihydrothieno[3,2-d]pyrimidin-6-yl]benzonitrile] |  |  |  | 60-100% |  | 100 |
| CC(=O)ONC(=N)c1ccc(-c2cc3ncn([C@H](C)[C@](O)(Cn4cncn4)c4ccc(F)cc4F)c(=O)c3s2)cc1 [Example 68] | 20 (≈ 34.5 µM) | 0.31 (≈ 0.535 µM) | 10 (≈ 17.3 µM) |  |  |  |
| C[C@@H](n1cnc2cc(-c3ccc(C(=N)NCCN)cc3)sc2c1=O)[C@](O)(Cn1cncn1)c1ccc(F)cc1F [Example 70, (1R,2R)-6-[4-[(2-Aminoethylamino)(imino)methyl]phenyl]-3-[2-(2,4-difluorophenyl)-2-hydroxy-1-methyl-3-(1H-1,2,4-triazol-1-yl)propyl]thieno[3,2-d]pyrimidin-4(3H)-one] | 20 (≈ 35.4 µM) | 0.07 (≈ 0.124 µM) | 10 (≈ 17.7 µM) |  |  |  |
| C[C@@H](n1cnc2cc(NCc3ccccc3)ccc2c1=O)[C@](O)(Cn1cncn1)c1ccc(F)cc1F [Example 71, (1R,2R)-7-Benzylamino-3-[2-(2,4-difluorophenyl)-2-hydroxy-1-methyl-3-(1H-1,2,4-triazol-1-yl)propyl]quinazolin-4(3H)-one] | 5 (≈ 9.95 µM) | ≤ 0.03 | 2.5 (≈ 4.97 µM) |  |  |  |
| C[C@@H](n1cnc2cc(Br)ccc2c1=O)[C@](O)(Cn1cncn1)c1ccc(F)cc1F [Example 73, (1R,2R)-7-Bromo-3-[2-(2,4-difluorophenyl)-2-hydroxy-1-methyl-3-(1H-1,2,4-triazol-1-yl)propyl]quinazolin-4(3H)-one] | 0.31 (≈ 0.651 µM) | ≤ 0.03 | 0.31 (≈ 0.651 µM) | 60-100% | 100 |  |
| C[C@@H](n1cnc2cc(-c3ccc(F)cc3)sc2c1=O)[C@](O)(Cn1cncn1)c1ccccc1F [Example 81, (1R,2R)-6-(4-Fluorophenyl)-3-[2-(2-fluorophenyl)-2-hydroxy-1-methyl-3-(1H-1,2,4-triazol-1-yl)propyl]thieno[3,2-d]pyrimidin-4(3H)-one] | 10 (≈ 20.9 µM) | ≤ 0.03 | 0.31 (≈ 0.646 µM) |  |  | 100 |

The remaining compounds from weak to strong by MIC [1], led by results:

| MIC [1] [µg/mL] | MIC [2] [µg/mL] | MIC [5] [µg/mL] | SMILES | protection on day 25 postinfection [3] | responders at 10 mg/kg [4] [%] | responders at 1 mg/kg [4] [%] |
| --- | --- | --- | --- | --- | --- | --- |
| 5 (≈ 9.3 µM) | 0.31 (≈ 0.577 µM) | 5 (≈ 9.3 µM) | C[C@@H](n1cnc2cc(S(=O)(=O)c3ccccc3)ccc2c1=O)[C@](O)(Cn1cncn1)c1ccc(F)cc1F [Example 61, (1R,2R)-3-[2-(2,4-Difluorophenyl)-2-hydroxy-1-methyl-3-(1H-1,2,4-triazol-1-yl)propyl]-7-phenylsulfonylquinazolin-4(3H)-one] |  |  |  |
| 2.5 (≈ 5.37 µM) | ≤ 0.03 | 0.63 (≈ 1.35 µM) | C[C@@H](n1cnc2cc(C(F)(F)F)ccc2c1=O)[C@](O)(Cn1cncn1)c1ccc(F)cc1F [Example 16, (1R,2R)-3-[2-(2,4-Difluorophenyl)-2-hydroxy-1-methyl-3-(1H-1,2,4-triazol-1-yl)propyl]-7-trifluoromethylquinazolin-4(3H)-one] | 60-100% |  | 100 |
| 2.5 (≈ 4.86 µM) | ≤ 0.03 | 0.07 (≈ 0.136 µM) | C[C@@H](n1cnc2cc(-c3ccc(Cl)cc3)sc2c1=O)[C@](O)(Cn1cncn1)c1ccc(F)cc1F [Example 31, (1R,2R)-6-(4-Chlorophenyl)-3-[2-(2,4-difluorophenyl)-2-hydroxy-1-methyl-3-(1H-1,2,4-triazol-1-yl)propyl]thieno[3,2-d]pyrimidin-4(3H)-one] | 60-100% |  | 100 |
| 2.5 (≈ 5.64 µM) | ≤ 0.03 | 0.31 (≈ 0.699 µM) | CSc1ccc2c(=O)n([C@H](C)[C@](O)(Cn3cncn3)c3ccc(F)cc3F)cnc2c1 [Example 50, (1R,2R)-3-[2-(2,4-Difluorophenyl)-2-hydroxy-1-methyl-3-(1H-1,2,4-triazol-1-yl)propyl]-7-(methylthio)quinazolin-4(3H)-one] |  |  | 100 |
| 2.5 (≈ 5.06 µM) | 0.15 (≈ 0.303 µM) | 1.25 (≈ 2.53 µM) | C[C@@H](n1cnc2cc(Br)c(F)cc2c1=O)[C@](O)(Cn1cncn1)c1ccc(F)cc1F [Example 75, (1R,2R)-7-Bromo-3-[2-(2,4-difluorophenyl)-2-hydroxy-1-methyl-3-(1H-1,2,4-triazol-1-yl)propyl]-6-fluoroquinazolin-4(3H)-one] |  |  | 100 |
| 1.25 (≈ 2.39 µM) | ≤ 0.03 | 0.15 (≈ 0.286 µM) | C[C@@H](n1cnc2cc(Oc3ccc(Cl)cc3)ccc2c1=O)[C@](O)(Cn1cncn1)c1ccc(F)cc1F [Example 39, (1R,2R)-7-(4-Chlorophenoxy)-3-[2-(2,4-difluorophenyl)-2-hydroxy-1-methyl-3-(1H-1,2,4-triazol-1-yl)propyl]quinazolin-4(3H)-one] |  |  | 100 |
| 1.25 (≈ 2.27 µM) | 0.31 (≈ 0.562 µM) | 0.63 (≈ 1.14 µM) | CONC(=N)c1ccc(-c2cc3ncn([C@H](C)[C@](O)(Cn4cncn4)c4ccc(F)cc4F)c(=O)c3s2)cc1 [Example 67, (1R,2R)-3-[2-(2,4-Difluorophenyl)-2-hydroxy-1-methyl-3-(1H-1,2,4-triazol-1-yl)propyl]-6-[4-[imino(methoxyamino)methyl]phenyl]thieno[3,2-d]pyrimidin-4(3H)-one] |  |  | 100 |
| 1.25 (≈ 2.51 µM) | ≤ 0.03 | 0.15 (≈ 0.302 µM) | C[C@@H](n1cnc2cc(-c3ccc(F)cc3)sc2c1=O)[C@](O)(Cn1cncn1)c1ccc(F)cc1F [Example 76, (1R,2R)-3-[2-(2,4-Difluorophenyl)-2-hydroxy-1-methyl-3-(1-H-1,2,4-triazol-1-yl)propyl]-6(4-fluorophenyl)thieno[3,2-d]pyrimidin-4(3H)-one] |  |  | 100 |
| 0.31 (≈ 0.592 µM) | ≤ 0.03 | 0.31 (≈ 0.592 µM) | C[C@@H](n1cnc2cc(I)ccc2c1=O)[C@](O)(Cn1cncn1)c1ccc(F)cc1F [Example 74, (1R,2R)-3-[2-(2,4-Difluorophenyl)-2-hydroxy-1-methyl-3-(1-H-1,2,4-triazol-1-yl)propyl]-7-iodoquinazolin-4(3H)-one] |  |  | 100 |
